Experimental findings from US20240415826A1, “[…] OF A GENE ENCODING AN […] BY TREATING A HUMAN SUBJECT WITH A NITROXIDE” (priority 2021, published 2024) are described below.

Assay [1] relates to UCP2. As to the kind of experiment: Effects of Tempol on gene expression in cardiac tissue of mice, chip-based microarray. Conditions: 5 mg/g of food from 14 to 31 months after birth. It counts as in vivo. As to the method: To assess the effects of Tempol on gene expression, Tempol was administered to experimental mice at a dose of 5 mg/g of food from 14 months to 31 months after birth. Mice receiving the same food without the addition of Tempol were used as a negative control. At the age of 31 months, the experimental animals were sacrificed and the hearts were surgically removed. The expression of a broad spectrum of genes in the cardiac tissue was assessed using chip-based microarray technology. Such chips are well known in the art and are widely used to assess gene expression.

Assay [2] deals with UCP2. Nature of the assay: Treating a human subject with Tempol, serum level of UCP2 following treatment. It counts as in vivo. To be noted: 2000 mg per day for 180 days. The protocol:
(§1) A 70-kilogram human subject over the age of 65 is identified as having, or known to have, or suspected of having an increased expression level of UCP2. The human subject is administered a dose of 2000 mg of Tempol (or another nitroxide antioxidant) per day for 180 days. This may be administered in a single dose, or may be administered as a number of smaller doses over a 24-hour period: for example, four 500-mg doses at […]. Following treatment, the serum level of UCP2, is decreased.
A 70-kilogram human subject is identified as having, or known to have, or suspected of having an increased expression level of UCP2. The human subject is administered a dose of 2000 mg of Tempol (or another nitroxide antioxidant) per day for 180 days. This may be administered in a single dose, or may be administered as a number of smaller doses over a 24-hour period: for example, four 500-mg doses at […]. Following treatment, the serum level of UCP2, is decreased.
as §1, with “65 and having a cardiovascular disease” for “65”, “for an increased expression level of UCP2. Or a 70-kilogram human subject over the age of 65 is” for “as having, or”, “have a cardiovascular disease and/or” for “have, or suspected of having an”
(§2) A 70-kilogram human subject at risk of developing colorectal cancer is identified for increased expression level of UCP2. Or a 70-kilogram human subject is known to be at risk of developing colorectal cancer and/or have increased expression level of UCP2. The human subject is administered a dose of 2000 mg of Tempol (or another nitroxide antioxidant) per day for 180 days. This may be administered in a single dose, or may be administered as a number of smaller doses over a 24-hour period: for example, four 500-mg doses at […]. Following treatment, the serum level of UCP2, is decreased.
as §2, with “of developing an autoimmune disease (e.g., rheumatoid arthritis) is identified” for “of developing colorectal cancer is identified”, “of developing an autoimmune disease and/or have” for “of developing colorectal cancer and/or have”
A 70-kilogram human subject of person at risk of developing a condition due to aging is identified. Or a 70-kilogram human subject of person is known to be at risk of developing a condition. The human subject is administered a dose of 2000 mg of Tempol (or another nitroxide antioxidant) per day for 180 days. This may be administered in a single dose, or may be administered as a number of smaller doses over a 24-hour period: for example, four 500-mg doses at […]. Following treatment, the serum level of UCP2, is decreased.
A 70-kilogram human subject at risk of developing a neurodegenerative disease (e.g., Parkinson's Disease) is identified for increased expression level of UCP2. Or a 70-kilogram human subject is known to be at risk of developing a neurodegenerative disease and/or have increased expression level of UCP2. The human subject is administered a dose of 2000 mg of Tempol (or another nitroxide antioxidant) per day for 180 days. […]

For `CC1(C)CC(O)CC(C)(C)N1[O]` [Tempol, 4-hydroxy-2,2,6,6-tetramethylpiperidine-1-oxyl], the “Fold change (UCP2 expression in cardiac tissue after Tempol administration)” value in the assay on UCP2 [1] (hearts at 31 months, vs. same food without Tempol, P-value 0.012) is listed as −1.61. In addition, in the assay with UCP2 [1] (microarray), the “UCP2 expression in cardiac tissue (result in words)” value was “statistically significant decrease in expression”. The “serum level of UCP2 following treatment” value in the assay on UCP2 [2] (Example 2: 70-kilogram human subject over the age of 65 with increased UCP2 expression), with UCP2 [2] (Example 3: 70-kilogram human subject with increased UCP2 expression), with UCP2 [2] (Example 4: human subject over the age of 65 having a cardiovascular disease), with UCP2 [2] (Example 5: human subject at risk of developing colorectal cancer), in the assay with UCP2 [2] (Example 6: human subject at risk of developing an autoimmune disease) and in the assay with UCP2 [2] (Example 7: human subject at risk of developing a condition due to aging) was “decreased” in each case. For the same molecule, the “serum level of UCP2 following treatment” value with UCP2 [2] (Example 8: human subject at risk of developing a neurodegenerative disease) and in the assay with UCP2 [2] (Example 9: human subject having an infection) was “decreased” in each case.
